Measurements reported in patent US20090069300A1, “ISOQUINOLINYL AND ISOINDOLINYL DERIVATIVES AS HISTAMINE-3 ANTAGONISTS” (Wyeth, priority 2007, published 2009).
Structures can show the parent of a compound that is named as a salt.

Molecular target: T1, Human Histamine H3 Receptor (Homo sapiens, UniProt Q9Y5N1)
T1 construct: expressed in transfected cells; host or cells: HEK293T (stably transfected; membranes prepared from the cells)
Test: Methyl histamine binding in human histamine H3 receptor cell line
Details: read-out: H3 Binding Ki
Experimental: Evaluation of Methyl Histamine Binding in Human Histamine H3 Receptor Cell Line
The affinity of test compounds for the histamine 3 (H3) receptor is evaluated in the following manner. […] Cells are scraped from the plate, transferred to centrifuge tubes, washed one time in PBS by centrifugation in a Sorvall RT7 Plus centrifuge (2000 rpm 10 minutes, 4° C.). The resulting pellets are stored at −80° C. until ready for use. Cells are re-suspended in buffer (50 mM Tris pH=7.5) and placed in a Dounce homogenizer, douncing ten times to homogenize cells. The homogenate is spun down by centrifugation (Sorvall RT7 Plus, 1800 rpm 10 minutes, 4° C.). The supernatant is placed in a Corex tube and spun down by centrifugation (Sorvall RC 5c Plus, 17,000 rpm 20 minutes, 4° C.). The pellet is resuspended in buffer (50 mM Tris, pH 7.5). Protein concentration (ug/ul) is determined using the Micro-BCA Protein Determination. The binding assay is set up in a 96 well microtiter plate in a total volume of 250 uL. Non-specific binding is determined in the presence of 10 uM clobenpropit. The final radioligand concentration is 1 nM. The test compound is serially diluted using the Beckman Biomek2000 to a final approximate range of 100 uM to 100 pM. Membranes are suspended in buffer, homogenized in 2 bursts of ten seconds using a Vitris mechanical homogenizer set at power setting 5. Ten μg of membranes are added to each well. Following a one hour incubation at 30° C., the reaction is terminated by the addition of ice cold buffer and rapid filtration with a Packard Filtermate Harvester through a GF/B filter pre-soaked with 1% PEI for one hour. The plate is dried for one hour at 37° C. and 60 μL Microscint Scintillant is added to each well. The CPM per well is measured on a Packard Top Count NXT. Ki values are determined in nM. […] CPM values are expressed as % specific binding and plotted vs compound concentration. A curve is fitted using a four-parameter logistic fit and the IC50 value is determined. The Ki is calculated from this using the Cheng-Prusoff equation: […]=IC50/1+(L/Kd) where L=concentration of free radioligand used in the assay, and Kd is the dissociation constant of the radioligand for the receptor. L is determined for each experiment by counting an aliquot of the diluted radioligand (corresponding to that added to each well) and the Kd has previously been determined under identical conditions for this cell line/radioligand.

T1 sequence (Q9Y5N1 whole entry): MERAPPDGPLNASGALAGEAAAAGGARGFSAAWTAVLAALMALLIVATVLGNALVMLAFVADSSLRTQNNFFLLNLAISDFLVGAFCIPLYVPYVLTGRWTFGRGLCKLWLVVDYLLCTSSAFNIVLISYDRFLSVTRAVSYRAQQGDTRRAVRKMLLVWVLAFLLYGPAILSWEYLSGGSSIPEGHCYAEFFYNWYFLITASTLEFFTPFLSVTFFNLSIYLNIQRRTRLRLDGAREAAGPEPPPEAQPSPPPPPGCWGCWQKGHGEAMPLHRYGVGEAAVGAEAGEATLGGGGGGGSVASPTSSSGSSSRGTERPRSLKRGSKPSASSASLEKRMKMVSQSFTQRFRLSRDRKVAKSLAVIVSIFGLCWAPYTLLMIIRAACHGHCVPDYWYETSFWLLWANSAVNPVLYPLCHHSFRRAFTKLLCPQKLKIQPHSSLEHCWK

Molecule `O=C(NCc1ccco1)c1ccc(-c2ccc3c(c2)CCN(CCN2CCCC2)C3=O)cc1` [Example 125, N-(2-furylmethyl)-4-[1-oxo-2-(2-pyrrolidin-1-ylethyl)-1,2,3,4-tetrahydroisoquinolin-6-yl]benzamide] has a Ki of less than 0.01 µM.

Molecule `C[C@@H]1CCCN1CCN1CCc2cc(-n3cnc4ccccc43)ccc2C1=O` [Example 154, (R)-6-(1H-benzo[d]imidazol-1-yl)-2-(2-(2-methylpyrrolidin-1-yl)ethyl)-3,4-dihydroisoquinolin-1(2H)-one hydrochloride] has a Ki of less than 0.01 µM.

`CN(C)C(=O)c1ccc(-c2ccc3c(c2)CCN(CCN2CCCC2)C3=O)c(F)c1` [Example 137, 3-fluoro-N,N-dimethyl-4-[1-oxo-2-(2-pyrrolidin-1-ylethyl)-1,2,3,4-tetrahydroisoquinolin-6-yl]benzamide] was tested, and the Ki was less than 0.01 µM.

For `O=C(c1ccc(-c2ccc3c(c2)CCN(CCN2CCCC2)C3=O)cc1)N1CCCCC1` [Example 79, 6-[4-(piperidin-1-ylcarbonyl)phenyl]-2-(2-pyrrolidin-1-ylethyl)-3,4-dihydroisoquinolin-1(2H)-one], the Ki was less than 0.01 µM.

For `CCN(CC)C(=O)c1ccc(-c2ccc3c(c2)CCN(CCN2CCC[C@H]2C)C3=O)cc1` [Example 65, N,N-diethyl-4-(2-{2-[(2R)-2-methylpyrrolidin-1-yl]ethyl}-1-oxo-1,2,3,4-tetrahydroisoquinolin-6-yl)benzamide], the Ki was less than 0.01 µM.

Molecule `N#Cc1ccc(Oc2ccc3c(c2)CCN(CCN2CCCC2)C3=O)nc1` [Example 47, 6-{[1-oxo-2-(2-pyrrolidin-1-ylethyl)-1,2,3,4-tetrahydroisoquinolin-6-yl]oxy}nicotinonitrile] has a Ki of 0.0101 to 0.025 µM.

Work on `CC(C)NC(=O)c1ccc(-c2ccc3c(c2)CCN(CCN2CCC[C@H]2C)C3=O)cc1` [Example 77, N-isopropyl-4-(2-{2-[(2R)-2-methylpyrrolidin-1-yl]ethyl}-1-oxo-1,2,3,4-tetrahydroisoquinolin-6-yl)benzamide] yielded a Ki of less than 0.01 µM.

`C[C@@H]1CCCN1CCN1CCc2cc(C(=O)N3Cc4ccccc4C3)ccc2C1=O` [Example 152, 6-(1,3-dihydro-2H-isoindol-2-ylcarbonyl)-2-{2-[(2R)-2-methylpyrrolidin-1-yl]ethyl}-3,4-dihydroisoquinolin-1(2H)-one] showed a Ki of less than 0.01 µM.

`O=C(c1ccc2c(c1)CCN(CCN1CCCC1)C2=O)N1CCCC1` [Example 38, 6-(pyrrolidin-1-ylcarbonyl)-2-(2-pyrrolidin-1-ylethyl)-3,4-dihydroisoquinolin-1(2H)-one hydrochloride] showed a Ki of 0.0101 to 0.025 µM.

`CN(C)C(=O)c1ccc(Oc2ccc3c(c2)CCN(CCN2CCCC2)C3=O)cc1` [Example 95, N,N-dimethyl-4-{[1-oxo-2-(2-pyrrolidin-1-ylethyl)-1,2,3,4-tetrahydroisoquinolin-6-yl]oxy}benzamide] was tested, and the Ki was 0.0251 to 0.05 µM.

`C[C@@H]1CCCN1CCN1CCc2cc(C(=O)N3CCCCCC3)ccc2C1=O` [Example 144, 6-(azepan-1-ylcarbonyl)-2-{2-[(2R)-2-methylpyrrolidin-1-yl]ethyl}-3,4-dihydroisoquinolin-1(2H)-one] was tested, and the Ki was less than 0.01 µM.

In the case of `CCN(CC)C(=O)c1ccc(-c2ccc3c(c2)CCN(CCN2CCCC2)C3=O)cc1` [Example 62, N,N-diethyl-4-[1-oxo-2-(2-pyrrolidin-1-ylethyl)-1,2,3,4-tetrahydroisoquinolin-6-yl]benzamide], the Ki is reported as less than 0.01 µM.

`O=C1c2ccc(-c3ccc(F)cc3)cc2CCN1CCN1CCCCCC1` [Example 44, 2-(2-azepan-1-ylethyl)-6-(4-fluorophenyl)-3,4-dihydroisoquinolin-1(2H)-one hydrochloride] gave a Ki of less than 0.01 µM.

`CCNC(=O)c1ccc(-c2ccc3c(c2)CCN(CCN2CCCC2)C3=O)cc1` [Example 58, N-ethyl-4-[1-oxo-2-(2-pyrrolidin-1-ylethyl)-1,2,3,4-tetrahydroisoquinolin-6-yl]benzamide] showed a Ki of less than 0.01 µM.

Work on `O=C(c1ccc(-c2ccc3c(c2)CCN(CCN2CCCC2)C3=O)c(F)c1)N1CCCC1` [Example 138, 6-[2-fluoro-4-(pyrrolidin-1-ylcarbonyl)phenyl]-2-(2-pyrrolidin-1-ylethyl)-3,4-dihydroisoquinolin-1(2H)-one] yielded a Ki of less than 0.01 µM.

`CNC(=O)c1ccc(-c2ccc3c(c2)CCN(CCN2CCCC2)C3=O)c(F)c1` [Example 139, 3-fluoro-N-methyl-4-[1-oxo-2-(2-pyrrolidin-1-ylethyl)-1,2,3,4-tetrahydroisoquinolin-6-yl]benzaimde] gave a Ki of less than 0.01 µM.

`O=C1c2ccc(-c3ccc(C(F)(F)F)cc3)cc2CCN1CCN1CCCC1` [Example 22, 2-(2-pyrrolidin-1-ylethyl)-6-[4-(trifluoromethyl)phenyl]-3,4-dihydroisoquinolin-1(2H)-one] was tested, and the Ki was less than 0.01 µM.

With `COC[C@@H]1CCCN1C(=O)c1ccc(-c2ccc3c(c2)CCN(CCN2CCCC2)C3=O)cc1` [Example 128, 6-(4-{[(2S)-2-(methoxymethyl)pyrrolidin-1-yl]carbonyl}phenyl)-2-(2-pyrrolidin-1-ylethyl)-3,4-dihydroisoquinolin-1(2H)-one] the Ki was less than 0.01 µM.

In the case of `COC1CCN(C(=O)c2ccc(-c3ccc4c(c3)CCN(CCN3CCCC3)C4=O)cc2)C1` (stereo not shown) [Example 127, 6-{4-[(3-methoxypyrrolidin-1-yl)carbonyl]phenyl}-2-(2-pyrrolidin-1-ylethyl)-3,4-dihydroisoquinolin-1(2H)-one], the Ki is reported as less than 0.01 µM.

Work on `COCCNC(=O)c1ccc(-c2ccc3c(c2)CCN(CCN2CCCC2)C3=O)cc1` [Example 69, N-(2-methoxyethyl)-4-[1-oxo-2-(2-pyrrolidin-1-ylethyl)-1,2,3,4-tetrahydroisoquinolin-6-yl]benzamide] yielded a Ki of less than 0.01 µM.

With `C[C@@H]1CCCN1CCN1CCc2cc(Oc3ccc(C#N)cn3)ccc2C1=O` [Example 48, 6-[(2-{2-[(2R)-2-methylpyrrolidin-1-yl]ethyl}-1-oxo-1,2,3,4-tetrahydroisoquinolin-6-yl)oxy]nicotinonitrile] the Ki was less than 0.01 µM.

In the case of `O=C(Nc1nccs1)c1ccc(-c2ccc3c(c2)CCN(CCN2CCCC2)C3=O)cc1` [Example 130, 4-[1-oxo-2-(2-pyrrolidin-1-ylethyl)-1,2,3,4-tetrahydroisoquinolin-6-yl]-N-1,3-thiazol-2-ylbenzamide], the Ki is reported as less than 0.01 µM.

Molecule `CCN(C)C(=O)c1ccc(-c2ccc3c(c2)CCN(CCN2CCCC2)C3=O)cc1` [Example 124, N-ethyl-N-methyl-4-[1-oxo-2-(2-pyrrolidin-1-ylethyl)-1,2,3,4-tetrahydroisoquinolin-6-yl]benzamide] has a Ki of less than 0.01 µM.

For `C[C@@H]1CCCN1CCN1CCc2cc(C(=O)NC3CCCCC3)ccc2C1=O` [Example 147, N-cyclohexyl-2-{2-[(2R)-2-methylpyrrolidin-1-yl]ethyl}-1-oxo-1,2,3,4-tetrahydroisoquinoline-6-carboxamide], the Ki was less than 0.01 µM.

With `O=C1c2ccc(-c3ccccc3F)cc2CCN1CCN1CCCC1` [Example 12, 6-(2-fluorophenyl)-2-(2-pyrrolidin-1-ylethyl)-3,4-dihydroisoquinolin-1(2H)-one] the Ki was 0.0101 to 0.025 µM.

`C[C@@H]1CCCN1CCN1CCc2cc(C(=O)NC3CCCC3)ccc2C1=O` [Example 149, N-cyclopentyl-2-{2-[(2R)-2-methylpyrrolidin-1-yl]ethyl}-1-oxo-1,2,3,4-tetrahydroisoquinoline-6-carboxamide] gave a Ki of less than 0.01 µM.

Work on `CCNC(=O)c1ccc(-c2ccc3c(c2)CCN(CCN2CCCC2)C3=O)c(F)c1` [Example 140, N-ethyl-3-fluoro-4-[1-oxo-2-(2-pyrrolidin-1-ylethyl)-1,2,3,4-tetrahydroisoquinolin-6-yl]benzamide] yielded a Ki of less than 0.01 µM.

`O=C(NCc1cccs1)c1ccc(-c2ccc3c(c2)CCN(CCN2CCCC2)C3=O)cc1` [Example 121, 4-[1-oxo-2-(2-pyrrolidin-1-ylethyl)-1,2,3,4-tetrahydroisoquinolin-6-yl]-N-(2-thienylmethyl)benzamide] showed a Ki of less than 0.01 µM.

In the case of `CCNC(=O)c1ccc(-c2ccc3c(c2)CCN(CCN2CCC[C@H]2C)C3=O)cc1` [Example 75, N-ethyl-4-(2-{2-[(2R)-2-methylpyrrolidin-1-yl]ethyl}-1-oxo-1,2,3,4-tetrahydroisoquinolin-6-yl)benzamide], the Ki is reported as less than 0.01 µM.

Molecule `O=C(NCCF)c1ccc(-c2ccc3c(c2)CCN(CCN2CCCC2)C3=O)cc1` [Example 68, N-(2-fluoroethyl)-4-[1-oxo-2-(2-pyrrolidin-1-ylethyl)-1,2,3,4-tetrahydroisoquinolin-6-yl]benzamide] has a Ki of less than 0.01 µM.

`CNC(=O)c1ccc(-c2ccc3c(c2)CCN(CCCN2CCCC2)C3=O)cc1` [Example 141, N-methyl-4-[1-oxo-2-(3-pyrrolidin-1-ylpropyl)-1,2,3,4-tetrahydroisoquinolin-6-yl]benzamide] gave a Ki of less than 0.01 µM.
